In PMC9415947 (Pharmaceuticals, 2022):

Legend:
PI3Kδ = target: T1, PI3Kδ (Homo sapiens, UniProt O00329); assay: In vitro PI3K inhibition assay (ADP-Glo kinase assay), PI3Kδ; assay type: biochemical; settings: mean of two independent experiments
T1 construct: purchased Merck Millipore
Description: (§1) All compounds were tested in a biochemical assay that measured the inhibition of phosphatidylinositol […] production by PI3K isoforms using the ADP-Glo kinase assay (Promega). In addition, the effects of synthesized compounds on B cell proliferation were measured.
(§2) The potency and selectivity of compounds were assessed by measuring the ability of PI3K kinases to convert ATP to ADP during an enzymatic reaction in the presence of decreasing doses of tested compounds. The experiments were carried out using the ADP-Glo kinase assay kit (Promega), according to the manufacturer’s protocol. PI3Kα, PI3Kβ, PI3Kδ, and PI3Kγ have been purchased from Merck Millipore and phosphoinositol-4,5-bisphosphate (PIP2) lipid vesicles with phosphoserine from ThermoFisher Scientific were used as a substrate in the enzymatic reaction.
(§3) After the reaction, the ADP-Glo reagent and the kinase detection reagent were added sequentially with 40 min of incubation (25 °C, 600 rpm) after adding each reagent. Finally, the luminescence intensity was measured and the IC50 was calculated using GraphPad Prism 7 software. The presented results are the mean value of IC50 from at least two independent experiments.

PI3Kγ = target: T2, PI3Kγ (Homo sapiens, UniProt P48736); assay: In vitro PI3K inhibition assay (ADP-Glo kinase assay), PI3Kγ; assay type: biochemical; settings: for IC50: mean of two independent experiments; for Fold Selectivity γ/δ: ratio IC50 PI3Kγ / IC50 PI3Kδ
T2 construct: purchased Merck Millipore
T2 sequence (P48736 whole entry): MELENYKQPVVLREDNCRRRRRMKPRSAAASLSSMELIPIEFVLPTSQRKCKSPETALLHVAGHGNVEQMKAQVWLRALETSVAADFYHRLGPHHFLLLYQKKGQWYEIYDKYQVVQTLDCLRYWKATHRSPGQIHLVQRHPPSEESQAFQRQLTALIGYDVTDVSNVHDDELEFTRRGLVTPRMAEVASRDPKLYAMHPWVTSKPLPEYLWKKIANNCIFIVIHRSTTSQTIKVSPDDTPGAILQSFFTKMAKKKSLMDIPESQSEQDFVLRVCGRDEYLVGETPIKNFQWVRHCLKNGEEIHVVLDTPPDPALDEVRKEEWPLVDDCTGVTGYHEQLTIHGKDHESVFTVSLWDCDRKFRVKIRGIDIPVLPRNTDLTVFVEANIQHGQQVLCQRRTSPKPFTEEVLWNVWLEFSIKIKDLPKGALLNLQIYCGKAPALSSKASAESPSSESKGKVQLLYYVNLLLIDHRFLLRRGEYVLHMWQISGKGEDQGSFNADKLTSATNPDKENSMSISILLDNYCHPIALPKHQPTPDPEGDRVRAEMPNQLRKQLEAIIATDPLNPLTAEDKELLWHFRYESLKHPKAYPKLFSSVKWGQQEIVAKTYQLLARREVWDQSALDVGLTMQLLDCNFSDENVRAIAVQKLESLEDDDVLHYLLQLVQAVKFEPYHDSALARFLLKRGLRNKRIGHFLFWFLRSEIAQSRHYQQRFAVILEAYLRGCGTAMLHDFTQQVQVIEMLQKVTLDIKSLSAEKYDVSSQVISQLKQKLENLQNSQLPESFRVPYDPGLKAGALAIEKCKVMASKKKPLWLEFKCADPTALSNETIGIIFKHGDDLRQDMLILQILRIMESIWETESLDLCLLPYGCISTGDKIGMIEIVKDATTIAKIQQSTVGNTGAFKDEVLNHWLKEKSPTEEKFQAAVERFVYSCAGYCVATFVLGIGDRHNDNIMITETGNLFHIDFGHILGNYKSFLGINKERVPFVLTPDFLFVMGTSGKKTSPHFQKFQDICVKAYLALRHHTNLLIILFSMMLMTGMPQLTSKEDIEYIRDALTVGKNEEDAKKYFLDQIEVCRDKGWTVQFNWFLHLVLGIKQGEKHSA
Description: as §1, §2, §3

T1 sequence (O00329 whole entry, looked up): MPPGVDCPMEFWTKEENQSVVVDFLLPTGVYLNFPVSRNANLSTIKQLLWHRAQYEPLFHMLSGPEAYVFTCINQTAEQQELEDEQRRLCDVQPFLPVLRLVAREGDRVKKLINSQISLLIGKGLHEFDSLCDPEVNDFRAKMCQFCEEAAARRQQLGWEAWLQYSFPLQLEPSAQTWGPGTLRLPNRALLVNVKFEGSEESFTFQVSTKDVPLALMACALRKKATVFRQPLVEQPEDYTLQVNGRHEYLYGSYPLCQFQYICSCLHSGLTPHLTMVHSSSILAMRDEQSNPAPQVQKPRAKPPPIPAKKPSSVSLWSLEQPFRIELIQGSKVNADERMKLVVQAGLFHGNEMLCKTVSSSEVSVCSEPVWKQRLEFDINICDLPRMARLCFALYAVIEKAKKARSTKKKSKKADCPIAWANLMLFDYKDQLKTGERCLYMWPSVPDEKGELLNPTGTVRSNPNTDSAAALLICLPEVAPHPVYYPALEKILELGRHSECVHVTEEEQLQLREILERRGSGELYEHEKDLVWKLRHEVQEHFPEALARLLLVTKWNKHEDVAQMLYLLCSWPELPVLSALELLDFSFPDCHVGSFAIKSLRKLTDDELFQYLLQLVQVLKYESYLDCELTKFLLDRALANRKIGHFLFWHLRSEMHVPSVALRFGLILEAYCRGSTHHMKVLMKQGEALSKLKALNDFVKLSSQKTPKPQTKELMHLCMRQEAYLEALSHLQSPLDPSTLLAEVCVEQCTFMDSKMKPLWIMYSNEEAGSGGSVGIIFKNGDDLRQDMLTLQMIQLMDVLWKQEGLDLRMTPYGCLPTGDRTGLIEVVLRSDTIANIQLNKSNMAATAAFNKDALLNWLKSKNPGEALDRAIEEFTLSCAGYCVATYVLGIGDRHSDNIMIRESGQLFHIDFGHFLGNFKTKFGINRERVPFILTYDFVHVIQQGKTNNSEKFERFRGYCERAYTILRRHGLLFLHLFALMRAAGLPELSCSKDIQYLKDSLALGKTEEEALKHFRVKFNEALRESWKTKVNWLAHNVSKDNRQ

Compound	IC50 (PI3Kδ)	IC50 (PI3Kγ)	Fold Selectivity γ/δ (PI3Kγ)
FC(F)c1nc2ccccc2n1-c1cc(N2CCOCC2)n2nc(CN3CCC(F)(F)CC3)cc2n1 [Compound 28, 2-(difluoromethyl)-1-{2-[(4,4-difluoropiperidin-1-yl)methyl]-7-(morpholin-4-yl)pyrazolo[1,5-a]pyrimidin-5-yl}-1H-1,3-benzimidazole]	0.443 µM	1.71 µM	3.9
NC(=O)C1CCN(Cc2cc3nc(-n4c(C(F)F)nc5ccccc54)cc(N4CCOCC4)n3n2)CC1 [Compound 29, 1-({5-[2-(difluoromethyl)-1H-1,3-benzimidazol-1-yl]-7-(morpholin-4-yl)pyrazolo[1,5-a]pyrimidin-2-yl}methyl)piperidine-4-carboxamide]	0.24 µM	1.86 µM	7.7
CC1(O)CCN(Cc2cc3nc(-n4c(C(F)F)nc5ccccc54)cc(N4CCOCC4)n3n2)CC1 [Compound 30, 1-({5-[2-(difluoromethyl)-1H-1,3-benzimidazol-1-yl]-7-(morpholin-4-yl)pyrazolo[1,5-a]pyrimidin-2-yl}methyl)-4-methylpiperidin-4-ol]	0.615 µM	7.55 µM	12
OCC1CCN(Cc2cc3nc(-n4c(C(F)F)nc5ccccc54)cc(N4CCOCC4)n3n2)CC1 [Compound 31, [1-({5-[2-(difluoromethyl)-1H-1,3-benzimidazol-1-yl]-7-(morpholin-4-yl)pyrazolo[1,5-a]pyrimidin-2-yl}methyl)piperidin-4-yl]methanol]	0.593 µM	8.32 µM	14
N#CC1CCN(Cc2cc3nc(-n4c(C(F)F)nc5ccccc54)cc(N4CCOCC4)n3n2)CC1 [Compound 32, 1-({5-[2-(difluoromethyl)-1H-1,3-benzimidazol-1-yl]-7-(morpholin-4-yl)pyrazolo[1,5-a]pyrimidin-2-yl}methyl)piperidine-4-carbonitrile]	0.192 µM	3.15 µM	16
FC(F)c1nc2ccccc2n1-c1cc(N2CCOCC2)n2nc(CN3CCC(N4CCOCC4)CC3)cc2n1 [Compound 33, 2-(difluoromethyl)-1-[7-(morpholin-4-yl)-2-{[4-(morpholin-4-yl)piperidin-1-yl]methyl}pyrazolo[1,5-a]pyrimidin-5-yl]-1H-1,3-benzimidazole]	0.276 µM	4.8 µM	17
OC1CCN(Cc2cc3nc(-n4c(C(F)F)nc5ccccc54)cc(N4CCOCC4)n3n2)CC1 [Compound 34, 1-({5-[2-(difluoromethyl)-1H-1,3-benzimidazol-1-yl]-7-(morpholin-4-yl)pyrazolo[1,5-a]pyrimidin-2-yl}methyl)piperidin-4-ol]	0.561 µM	4.32 µM	7.7
CC(=O)NC1CCN(Cc2cc3nc(-n4c(C(F)F)nc5ccccc54)cc(N4CCOCC4)n3n2)CC1 [Compound 35, N-[1-({5-[2-(difluoromethyl)-1H-1,3-benzimidazol-1-yl]-7-(morpholin-4-yl)pyrazolo[1,5-a]pyrimidin-2-yl}methyl)piperidin-4-yl]acetamide]	0.445 µM	1.5 µM	3.4
CNC(=O)CN1CCN(Cc2cc3nc(-n4c(C(F)F)nc5ccccc54)cc(N4CCOCC4)n3n2)CC1 [Compound 36, 2-[4-({5-[2-(difluoromethyl)-1H-1,3-benzimidazol-1-yl]-7-(morpholin-4-yl)pyrazolo[1,5-a]pyrimidin-2-yl}methyl)piperazin-1-yl]-N-methylacetamide]	0.063 µM	1.25 µM	20
CN1CCN(Cc2cc3nc(-n4c(C(F)F)nc5ccccc54)cc(N4CCOCC4)n3n2)CC1 [Compound 37, 2-(difluoromethyl)-1-{2-[(4-methylpiperazin-1-yl)methyl]-7-(morpholin-4-yl)pyrazolo[1,5-a]pyrimidin-5-yl}-1H-1,3-benzimidazole]	0.351 µM	17.7 µM	50
CC(C)N1CCN(Cc2cc3nc(-n4c(C(F)F)nc5ccccc54)cc(N4CCOCC4)n3n2)CC1 [Compound 38, 2-(difluoromethyl)-1-[7-(morpholin-4-yl)-2-{[4-(propan-2-yl)piperazin-1-yl]methyl}pyrazolo[1,5-a]pyrimidin-5-yl]-1H-1,3-benzimidazole]	0.038 µM	13.3 µM	351
CC(C)(C)N1CCN(C(=O)c2cc3nc(-n4c(C(F)F)nc5ccccc54)cc(N4CCOCC4)n3n2)CC1 [Compound 40, 1-[2-(4-tert-butylpiperazine-1-carbonyl)-7-(morpholin-4-yl)pyrazolo[1,5-a]pyrimidin-5-yl]-2-(difluoromethyl)-1H-1,3-benzimidazole]	0.084 µM	48.8 µM	581
CC(C)(O)C1CCN(C(=O)c2cc3nc(-n4c(C(F)F)nc5ccccc54)cc(N4CCOCC4)n3n2)CC1 [Compound 41]	0.101 µM	2.48 µM	25
CC(C)(C(N)=O)N1CCN(C(=O)c2cc3nc(-n4c(C(F)F)nc5ccccc54)cc(N4CCOCC4)n3n2)CC1 [Compound 42, 2-(4-{5-[2-(difluoromethyl)-1H-1,3-benzimidazol-1-yl]-7-(morpholin-4-yl)pyrazolo[1,5-a]pyrimidine-2-carbonyl}piperazin-1-yl)-2-methylpropanamide]	0.074 µM	3.59 µM	48
O=C(c1cc2nc(-n3c(C(F)F)nc4ccccc43)cc(N3CCOCC3)n2n1)N1CCN(C(=O)C2CC2)CC1 [Compound 43, 1-[2-(4-cyclopropanecarbonylpiperazine-1-carbonyl)-7-(morpholin-4-yl)pyrazolo[1,5-a]pyrimidin-5-yl]-2-(difluoromethyl)-1H-1,3-benzimidazole]	0.063 µM	3.83 µM	61
O=C(c1cc2nc(-n3c(C(F)F)nc4ccccc43)cc(N3CCOCC3)n2n1)N1CCCC1CO (stereo not drawn) [Compound 44, (1-{5-[2-(difluoromethyl)-1H-1,3-benzodiazol-1-yl]-7-(morpholin-4-yl)pyrazolo[1,5-a]pyrimidine-2-carbonyl}pyrrolidin-2-yl)methanol]	0.459 µM	2.02 µM	4.4
NC1CCN(C(=O)c2cc3nc(-n4c(C(F)F)nc5ccccc54)cc(N4CCOCC4)n3n2)C1 (stereo not drawn) [Compound 45, 1-{5-[2-(difluoromethyl)-1H-1,3-benzodiazol-1-yl]-7-(morpholin-4-yl)pyrazolo[1,5-a]pyrimidine-2-carbonyl}pyrrolidin-3-amine]	1.7 µM	23.3 µM	14
O=C(c1cc2nc(-n3c(C(F)F)nc4ccccc43)cc(N3CCOCC3)n2n1)N1CCOCC1 [Compound 46, 2-(difluoromethyl)-1-[7-(morpholin-4-yl)-2-(morpholine-4-carbonyl)pyrazolo[1,5-a]pyrimidin-5-yl]-1H-1,3-benzimidazole]	0.226 µM	8.54 µM	38
O=C(c1cc2nc(-n3c(C(F)F)nc4ccccc43)cc(N3CCOCC3)n2n1)N1CCC(F)(F)CC1 [Compound 47, 2-(difluoromethyl)-1-[2-(4,4-difluoropiperidine-1-carbonyl)-7-(morpholin-4-yl)pyrazolo[1,5-a]pyrimidin-5-yl]-1H-1,3-benzimidazole]	0.801 µM	35.8 µM	45
